≈ marks a conversion by molar mass, not a printed value. Where two headings read alike, the source gives them in different places. Numbered stars: 1 amine (or outer) side, 2 acyl side, 3 side chain; on linkers, the order of the positions; unused ones are H or OH. Square brackets hold non-standard residues; d marks the D form. Peptide text beside a SMILES is read from it. X1 = CC(C)N1CCN(c2ccc(-c3cccc(C[C@@H](C(=O)[*:2])N(C)[*:1])c3)cc2)CC1; Hmp(2R,3S) = CC[C@H](C)[C@@H](O)C(=O)O; NMeVal(β-OH) = CN[C@H](C(=O)O)C(C)(C)O; NMeV = CN[C@H](C(=O)O)C(C)C

The values below come from patent publication US11066447B2, “Aureobasidium derivatives and methods of synthesis” (AureoGen Biosciences, Inc., priority 2016, dated 2021).

For test [1], the system named is A. fumigatus MMX 5280 ATCC MYA-3626. In words: MIC/MEC assay (CLSI microdilution). The format is cell-based, Aspergillus fumigatus. In outline: (§1)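 Aspergillus isolates received approx. 0.2-2.5×10^4 CFU/mL final inoculum in RPMI-1640 plus 0.002% Tween-80, per CLSI microdilution. MMX 5280 was additionally run without Tween-80. Test compounds were serially diluted two-fold in 95% ethanol.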

In test [2] the test system is C. parapsilosis MMX 2323 ATCC 22019. In words: MIC assay (CLSI microdilution). In kind it is cell-based, Candida parapsilosis. The settings on record: read-out: MIC. In outline: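 Broth microdilution MIC testing of Candida parapsilosis ATCC 22019 followed CLSI methods in RPMI-1640, with or without 0.002% Tween-80. Yeast grown 48 hours at 35° C on Sabouraud dextrose agar was suspended to a 0.5 McFarland standard and diluted 1:100 to roughly 0.5-2.5×10^3 CFU/mL. The MIC was the lowest concentration preventing visible growth.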

The subject of test [3] is C. neoformans MMX 0634 ATCC 90112. In words: MIC assay (CLSI microdilution). The format is cell-based.
Test [4] deals with C. albicans MMX 2000 ATCC 10231. In words: MIC assay (CLSI microdilution). The settings on record: Candida albicans, ATCC10231, RPMI plus 0.002% Tween-80; read-out: MIC. The format is cell-based.
Test [5] shares this test system. In words: MIC assay (CLSI microdilution). The format is cell-based. The settings on record: Candida albicans, ATCC10231, Without Tween-80; read-out: MIC.
The subject of test [6] is A. flavus MMX 5948. In words: MIC/MEC assay (CLSI microdilution). The format is cell-based. Conditions: Aspergillus flavus, MMX5948, 48 h, RPMI plus 0.002% Tween-80. The method in brief:
as §1

Test [7] deals with A. niger MMX 0624 ATCC 16888. In words: MIC/MEC assay (CLSI microdilution). In kind it is cell-based. In outline: as §1
The subject of test [8] is A. fumigatus MMX 6782 ATCC 13073. In words: MIC/MEC assay (CLSI microdilution). The format is cell-based. The method in brief: as §1
Test [9] relates to A. fumigatus MMX 5944. In words: MIC/MEC assay (CLSI microdilution). The format is cell-based. The method in brief: as §1
Test [10] relates to A. fumigatus from Aureogen. In words: MIC/MEC assay (CLSI microdilution). In kind it is cell-based. The method in brief:
as §1

Test [11] deals with A. fumigatus MMX 6781 ATCC MYA-4609. In words: MIC/MEC assay (CLSI microdilution). Conditions: Aspergillus fumigatus. The format is cell-based. The method in brief: as §1
Test [12] deals with Coccidiodes immitus. In words: organism not typed. In kind it is cell-based.
For test [13], the system named is C. parapsilosis MMX 2323 ATCC 22019. The settings on record: Without Tween-80; quality control range; cited from earlier work.
Test [14] deals with A. fumigatus MMX 5280 ATCC MYA-3626. The settings on record: Without Tween-80, quality control range, cited from earlier work.
Where [15] appears, read: Aspergillus fumigatus, 48 h, RPMI plus 0.002% Tween-80, read-out: MIC.
[16] abbreviates: Cryptococcus neoformans, ATCC90112, 72 h, 72 hour, RPMI plus 0.002% Tween-80, read-out: MIC.
The mark [17] stands for this setting: Cryptococcus neoformans, ATCC90112, RPMI plus 0.002% Tween-80, read-out: MIC.
[18] abbreviates: RPMI plus 0.002% Tween-80, 48 hr.

Take `CC[C@H](C)[C@@H]1NC(=O)[C@@H]2CCCN2C(=O)[C@H](Cc2cccc(-c3ccc(N4CCN(C(C)C)CC4)cc3)c2)N(C)C(=O)[C@H](Cc2ccccc2)NC(=O)[C@H](C(C)C)N(C)C(=O)[C@@H]([C@@H](C)CC)OC(=O)[C@H](C(C)(C)O)N(C)C(=O)[C@H](CC(C)C)NC(=O)[C@H](C(C)C)N(C)C1=O` [Compound 25] (cyclo(F[X1]PI[NMeV]L[NMeVal(β-OH)][Hmp(2R,3S)][NMeV])): the minimal effective concentration in [1] (Aspergillus fumigatus, 48 h, RPMI plus 0.002% Tween-80, read-out: MEC) came out at 0.03 µg/mL; in test [1] (Aspergillus fumigatus, 48 h, Without Tween-80, read-out: MEC) it was 0.5 µg/mL; in test [6] it was 0.008 µg/mL; in [7] (Aspergillus niger, ATCC16888, 48 h, RPMI plus 0.002% Tween-80, read-out: MEC), 0.015 µg/mL; in test [8] (Aspergillus fumigatus, ATCC13073, 48 h, RPMI plus 0.002% Tween-80, read-out: MEC), 0.015 µg/mL; in test [9] (Aspergillus fumigatus, MMX5944, 48 h, RPMI plus 0.002% Tween-80), 0.015 µg/mL. For the same compound, the minimal effective concentration in test [10] (Aspergillus fumigatus, 48 h, RPMI plus 0.002% Tween-80) came to 0.06 µg/mL; in test [11] (setting [18]), 0.03 µg/mL. For the same compound, the minimal inhibitory concentration (MIC) in test [1] (setting [15]) turned out to be 0.12 µg/mL; in test [1] (Aspergillus fumigatus, 48 h, Without Tween-80, read-out: MIC), 1 µg/mL (≈ 0.767 µM); in test [1] (Without Tween-80, 48 hr) it was 1 µg/mL (≈ 0.767 µM); in [2] (ATCC22019, RPMI plus 0.002% Tween-80), 0.03 µg/mL; in test [2] (ATCC22019, Without Tween-80) it was 1 µg/mL (≈ 0.767 µM); in test [3] (72 hour, RPMI plus 0.002% Tween-80), 0.06 µg/mL. Besides, the minimum inhibitory concentration (MIC) turned out to be 0.06 µg/mL in test [3] (setting [16]); 0.015 µg/mL in [3] (setting [17]); 0.015 µg/mL in [4]; 1 µg/mL (≈ 0.767 µM) in test [5]; 0.015 µg/mL in test [7] (Aspergillus niger, ATCC16888, 48 h, RPMI plus 0.002% Tween-80, read-out: MIC); 0.015 µg/mL in test [7] (setting [18]). Further, the minimal inhibitory concentration (MIC) in [8] (Aspergillus fumigatus, ATCC13073, 48 h, RPMI plus 0.002% Tween-80, read-out: MIC) is 0.06 µg/mL; in test [8] (setting [18]), 0.06 µg/mL; in test [9] (Aspergillus fumigatus, MMX5944, 48 h, RPMI plus 0.002% Tween-80, read-out: MIC), 0.06 µg/mL; in test [9] (setting [18]) it was 0.06 µg/mL; in test [10] (setting [15]), 0.12 µg/mL; in [11] (48 h, RPMI plus 0.002% Tween-80, read-out: MIC), 0.12 µg/mL. Further, the MIC in test [12] was 0.15 µg/mL (≈ 0.115 µM). Also, the MEC in test [1] (Without Tween-80, 48 hr) was 1/1 μg/mL; in test [10] (setting [18]) it was 0.06 µg/mL.
For `C[C@@H]1[C@H](O)[C@@H](C)/C=C/C=C/C=C/C=C/C=C/C=C/C=C/[C@H](O[C@@H]2O[C@H](C)[C@@H](O)[C@H](N)[C@@H]2O)C[C@@H]2O[C@](O)(C[C@@H](O)C[C@@H](O)[C@H](O)CC[C@@H](O)C[C@@H](O)CC(=O)O[C@H]1C)C[C@H](O)[C@H]2C(=O)O` [Amphotericin B, reference compound], the MIC in [1] (Without Tween-80, 48 hr) is 0.5 µg/mL (≈ 0.541 µM); in test [3] (setting [16]) it was at most 0.06 µg/mL; in test [3] (setting [17]), at most 0.06 µg/mL; in test [4], at most 0.06 µg/mL; in [5], at most 0.06 µg/mL. The “CLSI QC Range (MIC)” value was “(0.25-1)^1 μg/mL” in test [13], 0.5 to 4 µg/mL in test [14] and “(0.5-4)^1 μg/mL” in test [14] (listed as Amph. B).
